These molecules were tested against T1, BRD4 BD2 (Homo sapiens, UniProt O60885, Y97A) (assay: TR-FRET competition assay, BRD4 BD2). Conditions: single mutant tandem BRD4, read-out: pIC50 in the BRD4 BD2 assay (converted).
T1 construct: BRD4 (1-477) (Y97A) and (Y390A); made in house; host or cells: E. coli (pET15b vector)
Format: binding
Protocol: Bromodomain binding was assessed utilising a time resolved fluorescent resonance energy transfer (TR-FRET) competition assay. To enable this approach a known, high affinity, pan-BET interacting small molecule was labelled with Alexa Fluor® 647, which is a far-red-fluorescent dye (Reference Compound X). Reference Compound X acts as a reporter of bromodomain binding and is the acceptor fluorophore component of the TR-FRET pair. Europium chelate, conjugated to an anti-6*His antibody, was utilised as the donor fluorophore in the TR-FRET pair. […] A TR-FRET signal is generated when the donor and acceptor fluorophores are in close proximity, between 20-80 Å, which is enabled in this assay by binding of Reference Compound X to the bromodomain protein.
If the acceptor fluorophore is in close proximity then energy transfer can occur, which leads to emission of Alexa Fluor® 647 at λ665 nm. In the presence of competitor compound, Reference Compound X can be displaced from binding to the bromodomain. If displacement occurs, the acceptor fluorophore is no longer in proximity to the donor fluorophore, which prevents fluorescent energy transfer and, subsequently, a loss of Alexa Fluor® 647 emission at λ665 nm.
The competition of the compounds of formula (I) with Reference Compound X for binding to the BET family (BRD2, BRD3, BRD4 and BRDT) was assessed using protein truncates spanning both bromodomain 1 (BD1) and bromodomain 2 (BD2). In order to monitor differential binding to either BD1 or BD2, single residue mutations of key tyrosines to alanine were made in the acetyl lysine binding pockets. To validate this approach, a double residue mutant tandem domain protein was produced for each of the BET family members. Utilising a Fluorescence Polarisation approach, binding affinities for each of the single and double mutants for Reference Compound X were determined. […] Final purification was completed by Superdex 200 prep grade size exclusion column. Purified protein was stored at −80° C. in 20 mM HEPES pH 7.5 and 100 mM NaCl.
Protocol for Bromodomain BRD2, 3, 4 and T, BD1+BD2 mutant TR-FRET competition assays: All assay components were dissolved in an assay buffer composing of 50 mM HEPES pH7.4, 50 mM NaCl, 5% Glycerol, 1 mM DTT and 1 mM CHAPS. Reference Compound X was diluted, in assay buffer containing 20 nM single mutant, tandem bromodomain protein, to a concentration equivalent to 2*Kd for this bromodomain. The solution containing bromodomain and Reference Compound X was added to dose response dilutions of test compound or DMSO vehicle (a maximum of 0.5% DMSO is used in this assay) in Greiner 384 well black low volume microtitre plates and subsequently incubated for 30 minutes at room temperature. An equal volume of 3 nM of anti-6*His Europium chelate was added to all wells, followed by a further 30 minute incubation at room temperature. TR-FRET was detected using a Perkin Elmer Multimode plate reader, by exciting the donor fluorophore at λ337 nm and subsequently, after a delay of 50 μsecs, measuring emission of the donor and acceptor fluorophores at λ615 nm and λ665 nm, respectively. In order to control these assays, 16 replicates each of uninhibited (DMSO vehicle) and inhibited (10*IC50 concentrations of Example 11 of WO 2011/054846A1) TR-FRET assays were included on every microtitre plate.

SMILES | IC50 [µM]
CNC(=O)c1cc(C(=O)N[C@H]2[C@@H]3COC[C@@H]32)cc2c1OC[C@@H]2c1ccc(OCCN)cc1 (single isomer, unassigned) [Example 111, (R*)-3-(4-(2-aminoethoxy)phenyl)-N^5-((1R,5S,6r)-3-oxabicyclo[3.1.0]hexan-6-yl)-N^7-methyl-2,3-dihydrobenzofuran-5,7-dicarboxamide] | 1 to 100
CCNC(=O)c1cc(C(=O)NC)c2c(c1)C(c1cccc(C(=O)OCC)c1)CO2 (single isomer, unassigned) [Example 113, (R*)-ethyl 3-(5-(ethylcarbamoyl)-7-(methylcarbamoyl)-2,3-dihydrobenzofuran-3-yl)benzoate] | 1 to 100
CNC(=O)c1cc(C(=O)NC2CC2)cc2c1OCC2C1CCOCC1 (single isomer, unassigned) [Example 120, (R*)-N^5-cyclopropyl-N^7-methyl-3-(tetrahydro-2H-pyran-4-yl)-2,3-dihydrobenzofuran-5,7-dicarboxamide] | 1 to 100
CNC(=O)c1cc(C(=O)N[C@H]2C[C@@H]2C)cc2c1OCC2C1CCOCC1 (single isomer, unassigned) [Example 121, (R*)-N^7-methyl-N^5-((1S,2S)-2-methylcyclopropyl)-3-(tetrahydro-2H-pyran-4-yl)-2,3-dihydrobenzofuran-5,7-dicarboxamide] | 1 to 100
CNC(=O)c1cc(C(=O)NCCn2cnnc2)cc2c1OCC2c1ccccc1 (centres unmarked) [Example 110, N^5-(2-(4H-1,2,4-triazol-4-yl)ethyl)-N^7-methyl-3-phenyl-2,3-dihydrobenzofuran-5,7-dicarboxamide] | 1 to 100

Now from value to molecule:

IC50 [µM] | SMILES
1 to 100 | CNC(=O)c1cc(C(=O)NCCc2cnn(C)c2)cc2c1OCC2c1ccc(F)cc1 (single isomer, unassigned) [Example 119, (R*)-3-(4-fluorophenyl)-N^7-methyl-N^5-(2-(1-methyl-1H-pyrazol-4-yl)ethyl)-2,3-dihydrobenzofuran-5,7-dicarboxamide]
1 to 100 | CNC(=O)c1cc(C(=O)NC2CC2)cc2c1OCC2C1CCOCC1 (centres unmarked) [Example 104, N^5-cyclopropyl-N^7-methyl-3-(tetrahydro-2H-pyran-4-yl)-2,3-dihydrobenzofuran-5,7-dicarboxamide]
1 to 100 | CNC(=O)c1cc(C(=O)Nc2nccn2C)cc2c1OCC2c1ccccc1 (centres unmarked) [Example 118, N^7-methyl-N^5-(1-methyl-1H-imidazol-2-yl)-3-phenyl-2,3-dihydrobenzofuran-5,7-dicarboxamide]
1 to 100 | CNC(=O)c1cc(C(=O)Nc2nnn(C)n2)cc2c1OC[C@H]2c1ccccc1 [Example 123, (S)-N^7-methyl-N^5-(2-methyl-2H-tetrazol-5-yl)-3-phenyl-2,3-dihydrobenzofuran-5,7-dicarboxamide]

Each molecule was assayed on BET family (BRD2, BRD3, BRD4 and BRDT) tandem bromodomain proteins (assay: Fluorescence Polarisation binding of Reference Compound X to mutant tandem BET proteins). Conditions: double residue (Tyr to Ala) mutant tandem domain proteins.
Parameters: species or system Human
Protocol: The competition of the compounds of formula (I) with Reference Compound X for binding to the BET family (BRD2, BRD3, BRD4 and BRDT) was assessed using protein truncates spanning both bromodomain 1 (BD1) and bromodomain 2 (BD2). In order to monitor differential binding to either BD1 or BD2, single residue mutations of key tyrosines to alanine were made in the acetyl lysine binding pockets. To validate this approach, a double residue mutant tandem domain protein was produced for each of the BET family members. Utilising a Fluorescence Polarisation approach, binding affinities for each of the single and double mutants for Reference Compound X were determined. […] The affinities of the single mutated bromdomain tandem proteins for Reference Compound X were equi-potent with the corresponding non-mutated BET protein. […] Final purification was completed by Superdex 200 prep grade size exclusion column. Purified protein was stored at −80° C. in 20 mM HEPES pH 7.5 and 100 mM NaCl. Protein identity was confirmed by peptide mass fingerprinting and predicted molecular weight confirmed by mass spectrometry.

SMILES | reduction in Kd (affinity), double mutant tandem proteins versus non mutated, wild type tandem BET proteins [fold]
COc1ccc2c(c1)C(c1ccc(Cl)cc1)=N[C@@H](CC(=O)NCCCCCNC(=O)CCCCCC1(C)/C(=C/C=C/C=C/C3=[N+](CCCCS(=O)(=O)O)c4ccc(S(=O)(=O)O)cc4C3(C)C)N(CCCCS(=O)(=O)[O-])c3ccc(S(=O)(=O)O)cc31)c1nnc(C)n1-2 (some centres unmarked) [Reference Compound X] | > 1000

Same assay, conditions: single mutated tandem proteins

SMILES | affinities of the single mutated bromodomain tandem proteins versus the corresponding non-mutated BET protein
COc1ccc2c(c1)C(c1ccc(Cl)cc1)=N[C@@H](CC(=O)NCCCCCNC(=O)CCCCCC1(C)/C(=C/C=C/C=C/C3=[N+](CCCCS(=O)(=O)O)c4ccc(S(=O)(=O)O)cc4C3(C)C)N(CCCCS(=O)(=O)[O-])c3ccc(S(=O)(=O)O)cc31)c1nnc(C)n1-2 (some centres unmarked) [Reference Compound X] | equi-potent

From patent publication US11273146B2, “Benzofuran derivatives and their use as bromodomain inhibitors” (GLAXOSMITHKLINE INTELLECTUAL PROPERTY (NO. 2) LIMITED, priority 2017, dated 2022)
